Measurements published in patent US20030054990A1, “Methods of using neural thread proteins to treat tumors and other conditions requiring the removal or destruction of cells” (Nymox Pharmaceutical Corporation, priority 2001, published 2003).
Values joined by “and” are separate entries in the source; they are usually repeats but may differ in a detail not shown here. Equal values may be shown once.

Columns and labels:
Format in all cases: cell-based
glioma cells = assay: MTT assay, cytotoxicity in glioma cells; details: Tamoxifen 100 μM, AD7C-NTP 100-1000 ng/ml; for ABS 570-650 Sample: single replicate
Experimental: (§1) Cryopreserved glioma and neuroblastoma cells were acquired from the American Type Culture Collection (ATCC), Virginia. Cells were thawed and diluted in suspension media and centrifuged at 700 rpm for 7 minutes at 4° C. Cell pellets were then resuspended in CACO-2 media and cultured in standard 75 or 175 cm^2 flasks at 37° C., 5% CO2 until approximately confluent. The cells were then trypsinized and resuspended in CACO-2 media to achieve a final cell density of 1.5×10^5 cells/ml. 50 μl aliquots per sample were then added per well to 96 well plates.
(§2) For Experiment I, 50 μl of either PBS (phosphate buffered solution) (negative control), 100 μM tamoxifen in phosphate buffered saline PBS (positive control), or test article were added to each sample culture.
(§3) For Experiment II, 1 mM tamoxifen in DMSO (dimethylsulfoxide) was diluted to 100 μM concentration in CACO-2 media, and 100 μl per well was added to positive control wells. A vehicle control consisting of 1% DMSO in CACO-2 media was also added to this experiment. Other negative controls consisted of human and bovine serum albumin and other nontoxic polypeptides.
(§4) An MTT assay is a sensitive assay for the measurement of cell proliferation based upon the reduction of the tetrazolium salt 3,[4,5-dimethylthiazol-2-yl]-2,5-diphenyltetrazolium bromide (MTT).
(§5) Following incubations with control or test substances, media was aspirated and 100 μl MTT was added to each well. Plates were then incubated for 3 hours at 37° C., 5% CO2. MTT was then replaced with acidified isopropanol (0.4 N HCI) and the plates were stored overnight at 4° C., covered. Plates were then agitated gently for 1 minute on a rotary shaker and the difference between emission absorbance of 570 nm and background absorbance of 650 nm was measured spectrophotometrically on an automated plate reader.
(§6) Neuroblastoma and glioma cells were incubated for 24 hours following treatment with test materials or control solutions. MTT was added to all cultures at this time. Results are expressed as means absorbance differences and represented as per cent of negative control and are shown in Table 1 (cytotoxicity in glioma cells) and Table 2 (cytotoxicity in neuroblastoma cells).
(§7) Glioma cells and neuroblastma cells were used for this experiment. MTT was added to the plates following a 24 hour incubation with control or test solutions. Other plates were replenished with fresh media, control, or test solution at 24 hours and then read 3 days later. Results are expressed as mean absorbance differences and as per cent of negative control and are shown in Table 3 (glioma cells) and Table 4 (neuroblastoma cells).

[1] = MTT assay, cytotoxicity in glioma cells; details: glioma cells (ATCC), per cent of negative control, Tamoxifen 100 μM, AD7C-NTP 100-1000 ng/ml, read-out: Percent Of Viable Cells
Experimental: as §1, §2, §3, §4, §5, §6, §7

neuroblastoma cells = assay: MTT assay, cytotoxicity in neuroblastoma cells; details: Tamoxifen 100 μM, AD7C-NTP 100-1000 ng/ml; for Sample (absorbance difference): single replicate
Experimental: as §1, §2, §3, §4, §5, §6, §7

[2] = MTT assay, cytotoxicity in neuroblastoma cells; details: neuroblastoma cells (ATCC), per cent of negative control, Tamoxifen 100 μM, AD7C-NTP 100-1000 ng/ml, read-out: Percent Of Viable Cells
Experimental: as §1, §2, §3, §4, §5, §6, §7

In the case of `CC/C(=C(\c1ccccc1)c1ccc(OCCN(C)C)cc1)c1ccccc1` [PC (Tamoxifen), tamoxifen], the “ABS 570-650 Mean” value (glioma cells; 24 hrs) is reported as 0.015, the “ABS 570-650 Sample” value (glioma cells; 24 hrs) is reported as 0.017 and 0.012 and the “ABS 570-650 Mean” value (glioma cells; 4 days) is reported as 0.015. For the same compound, the “ABS 570-650 Sample” value (glioma cells; 4 days) was 0.018 and 0.012, the viability at 24 h, 100 µM ([1]; 24 hrs) was 28% and the viability at 4 days, 100 µM ([1]; 4 days) was 19%. For the same compound, the “Mean (absorbance difference)” value (neuroblastoma cells; 24 hour incubation) was 0.010, the “Sample (absorbance difference)” value (neuroblastoma cells; 24 hour incubation) was 0.010 and 0.009 and the “Mean (absorbance difference)” value (neuroblastoma cells; 4 day incubation) was 0.019. For the same compound, the “Sample (absorbance difference)” value (neuroblastoma cells; 4 day incubation) was 0.016, the viability at 24 h, 100 µM ([2]; 24 hour incubation) was 14% and the viability at 4 days, 100 µM ([2]; 4 day incubation) was 25%.
